{"source": "patent US20060106026A1", "about": "“4-(4-methylpiperazin-1-ylmethyl)-n-[4-pyridin-3-yl)pyrimidin-2-ylamino)phenyl]-benzamide for treating anaplastic thyroid cancer” (priority 2002, published 2006)", "key": {"[1]": {"test_system": "ERK1/2", "experimental": "Abl was immunoprecipitated from cell lysates using the indicated antibody. In vitro kinase assay was performed as described previously (Dorey et al., Oncogene, 2000, […]:8075-84). Radiolabelled GST-Crk was quantified using a PhosphorImager (Molecular Dynamics, Inc., Sunnyvale, Calif., USA). […] Stimulation was with 20% FCS for 8 minutes, cell lysates were collected and subjected to SDS-PAGE and Western blotting carried out using antibodies against ERK1/2 and the phosphorylated form of ERK1/2. […] A common response to extracellular signals such as growth factors is the activation of the mitogen-activated protein (MAP) kinase cascade."}, "[2]": {"test_system": "ARO", "test": "Cell growth assay, experiment 1 (cell count kit 48 h; growth curve 5 days)", "conditions": "for cell number quantified with a cell count kit (Wako), mean: 48 hour-treatment, no SALT I: 0.959"}}}
{"molecule": "CS(=O)(=O)O.Cc1ccc(NC(=O)c2ccc(CN3CCN(C)CC3)cc2)cc1Nc1nccc(-c2cccnc2)n1", "note": "[SALT I]", "values": [{"measurement": "phosphorylation of ERK1/2 in response to serum stimulation", "setting": "[1]", "value": "had no effect on its phosphorylation"}, {"measurement": "level of p-ERK1/2", "setting": "[1]; ARO and FRO, 10 μM SALT I for two hours, 20% FCS for 8 minutes", "value": "did not affect"}, {"measurement": "growth suppression, dose dependence", "setting": "[2]; ARO (mutant p53), lower than 50 μM, 48 h", "value": "show growth suppression in SALT I dose dependent manner"}, {"measurement": "cell growth curve on a 5 day period", "setting": "[2]; ARO, 10 μM of SALT I, compared to control cells", "value": "time-dependent reduction of cell growth"}, {"measurement": "cell death", "setting": "[2]; ARO, 50 μM of SALT I, 48 h", "value": "died"}, {"measurement": "cell number quantified with a cell count kit (Wako), mean", "setting": "[2]; ARO, SALT I 1 μM", "value": 0.785}, {"measurement": "cell number quantified with a cell count kit (Wako), mean", "setting": "[2]; ARO, SALT I 10 μM", "value": 0.539}, {"measurement": "cell number quantified with a cell count kit (Wako), mean", "setting": "[2]; ARO, SALT I 50 μM", "value": 0.096}]}
